Reference: PubChem BioAssay (NCI)
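Compound exposure: 48 hours, 5 concentrations, 96-well plates. TGI is the concentration that stops growth completely.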

How the values were obtained:
Assay in all cases: NCI tumour cell line growth inhibition, 48 h
[1] = tested on: RXF 393 renal
[2] = tested on: SNB-19 CNS
[3] = tested on: DMS 273 small cell lung
[4] = tested on: MOLT-4 leukemia
[5] = tested on: HCT-116 colon
[6] = tested on: HL-60(TB) leukemia
[7] = tested on: COLO 205 colon
[8] = tested on: SF-268 CNS
[9] = tested on: SW-620 colon
[10] = tested on: OVCAR-3 ovarian
[11] = tested on: NCI-H23 lung
[12] = tested on: SK-MEL-5 melanoma
[13] = tested on: HT29 colon
[14] = tested on: HOP-62 NSCLC
[15] = tested on: NCI-H522 lung
[16] = tested on: SN12C renal
[17] = tested on: SF-539 CNS
[18] = tested on: MCF7 breast
[19] = tested on: OVCAR-5 ovarian
[20] = tested on: UACC-257 melanoma
[21] = tested on: NCI/ADR-RES ovarian
[22] = tested on: A498 renal
[23] = tested on: SNB-78 CNS
[24] = tested on: SK-OV-3 ovarian
[25] = tested on: SNB-75 CNS
[26] = tested on: A549 NSCLC
[27] = tested on: DLD-1 colon
[28] = tested on: XF 498 CNS
[29] = tested on: KM12 colon
[30] = tested on: IGROV1 ovarian
[31] = tested on: HOP-18 NSCLC
[32] = tested on: EKVX NSCLC
[33] = tested on: P388/ADR leukemia
[34] = tested on: SN12K1 renal
[35] = tested on: K-562 leukemia
[36] = tested on: SK-MEL-28 melanoma
[37] = tested on: MALME-3M melanoma
[38] = tested on: HCC-2998 colon
[39] = tested on: KM20L2 colon
[40] = tested on: HCT-15 colon
[41] = tested on: NCI-H460 lung
[42] = tested on: OVCAR-8 ovarian
[43] = tested on: UO-31 renal
[44] = tested on: OVCAR-4 ovarian
[45] = tested on: UACC-62 melanoma
[46] = tested on: M19-MEL melanoma
[47] = tested on: HOP-92 NSCLC
[48] = tested on: RPMI-8226 leukemia
[49] = tested on: CCRF-CEM leukemia
[50] = tested on: DMS 114 small cell lung
[51] = tested on: SF-295 CNS
[52] = tested on: P388 leukemia
[53] = tested on: CAKI-1 renal
[54] = tested on: NCI-H226 lung
[55] = tested on: U251 CNS
[56] = tested on: LOX IMVI melanoma
[57] = tested on: SK-MEL-2 melanoma

C/C=C/C1=CC(=O)C(O)C1O (configuration not stated)
TGI [1]: 44 µM
TGI [2]: 124 µM
TGI [3]: 98.9 µM
TGI [4]: 109 µM
TGI [5]: 96 µM
TGI [6]: 57.5 µM
TGI [7]: 51.8 µM
TGI [8]: 91.2 µM
TGI [9]: 99.3 µM
TGI [10]: 67.7 µM
TGI [11]: > 77.9 µM
TGI [12]: 79.8 µM
TGI [13]: 102 µM
TGI [14]: 126 µM
TGI [15]: 15.5 µM
TGI [16]: 64 µM
TGI [17]: 55.9 µM
TGI [18]: 122 µM
TGI [19]: 130 µM
TGI [20]: 97.4 µM
TGI [21]: 66.1 µM
TGI [22]: 16.7 µM
TGI [23]: 173 µM
TGI [24]: 130 µM
TGI [25]: 67.5 µM
TGI [26]: 107 µM
TGI [27]: 122 µM
TGI [28]: 45.6 µM
TGI [29]: 39 µM
TGI [30]: 141 µM
TGI [31]: 27.1 µM
TGI [32]: 148 µM
TGI [33]: 113 µM
TGI [34]: 84.2 µM
TGI [35]: 179 µM
TGI [36]: 97.9 µM
TGI [37]: 87.4 µM
TGI [38]: 82.5 µM
TGI [39]: > 80.9 µM
TGI [40]: 97.2 µM
TGI [41]: 51.4 µM
TGI [42]: 79.9 µM
TGI [43]: 106 µM
TGI [44]: 111 µM
TGI [45]: 88.6 µM
TGI [46]: 113 µM
TGI [47]: 66 µM
TGI [48]: 102 µM
TGI [49]: 103 µM
TGI [50]: 72.5 µM
TGI [51]: 118 µM
TGI [52]: 141 µM
TGI [53]: 43.7 µM
TGI [54]: 62.5 µM
TGI [55]: 129 µM
TGI [56]: 83 µM
TGI [57]: 133 µM
